Source: patent US20230141101A1, “PDE4 INHIBITOR COMPOUND AND MEDICAL USE THEREOF” (Suzhou Longbotai Pharmaceuticals Co., Ltd., priority 2020, published 2023)

Assays:
Format in all cases: biochemical
Conditions in all cases: 20 nM
PDE4B1 = target: T1, PDE4B1 (Homo sapiens, UniProt Q07343); assay: PDE4 inhibitory activity assay (FAM-cAMP enzymatic reaction), PDE4B1
T1 construct: purchased BPS 60041
How it was run: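 Each isoform is incubated with test compound for 15 min at room temperature before FAM-cAMP substrate starts a 30-min reaction.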

PDE4A1A = target: T2, PDE4A1A (Homo sapiens, UniProt P27815); assay: PDE4 inhibitory activity assay (FAM-cAMP enzymatic reaction), PDE4A1A
T2 construct: purchased BPS 60040
How it was run: (§1)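 Human PDE4A1A, PDE4B1 or PDE4D2 preincubated with compound 15 min at room temperature, then FAM-cAMP substrate added; reaction 30 min at room temperature before stop solution and further 60 min. Fluorescence read on multilabel counter; IC50 fitted from inhibition rates.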

PDE4D2 = PDE4D2 (Homo sapiens, UniProt Q08499); assay: PDE4 inhibitory activity assay (FAM-cAMP enzymatic reaction), PDE4D2
How it was run: as §1

T1 sequence (Q07343 whole entry): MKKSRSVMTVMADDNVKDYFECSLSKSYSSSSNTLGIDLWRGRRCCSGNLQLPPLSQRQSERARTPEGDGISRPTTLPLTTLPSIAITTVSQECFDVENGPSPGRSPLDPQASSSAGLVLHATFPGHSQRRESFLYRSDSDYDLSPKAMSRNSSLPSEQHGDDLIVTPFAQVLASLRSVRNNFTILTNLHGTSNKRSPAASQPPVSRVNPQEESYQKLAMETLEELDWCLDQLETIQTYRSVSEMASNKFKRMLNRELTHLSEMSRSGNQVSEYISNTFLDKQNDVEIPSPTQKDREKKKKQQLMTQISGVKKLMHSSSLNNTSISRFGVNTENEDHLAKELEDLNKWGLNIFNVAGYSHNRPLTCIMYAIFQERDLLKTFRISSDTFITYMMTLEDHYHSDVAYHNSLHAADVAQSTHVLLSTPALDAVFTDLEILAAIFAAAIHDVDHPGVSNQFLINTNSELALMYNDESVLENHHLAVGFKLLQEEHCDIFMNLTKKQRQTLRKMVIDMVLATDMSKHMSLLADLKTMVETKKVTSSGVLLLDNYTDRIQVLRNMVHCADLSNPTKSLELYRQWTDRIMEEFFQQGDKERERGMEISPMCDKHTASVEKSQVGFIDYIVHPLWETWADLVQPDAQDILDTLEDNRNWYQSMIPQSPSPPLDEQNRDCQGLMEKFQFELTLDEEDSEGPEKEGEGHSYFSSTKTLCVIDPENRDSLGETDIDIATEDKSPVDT
T2 sequence (P27815 1-647 isoform P27815-4): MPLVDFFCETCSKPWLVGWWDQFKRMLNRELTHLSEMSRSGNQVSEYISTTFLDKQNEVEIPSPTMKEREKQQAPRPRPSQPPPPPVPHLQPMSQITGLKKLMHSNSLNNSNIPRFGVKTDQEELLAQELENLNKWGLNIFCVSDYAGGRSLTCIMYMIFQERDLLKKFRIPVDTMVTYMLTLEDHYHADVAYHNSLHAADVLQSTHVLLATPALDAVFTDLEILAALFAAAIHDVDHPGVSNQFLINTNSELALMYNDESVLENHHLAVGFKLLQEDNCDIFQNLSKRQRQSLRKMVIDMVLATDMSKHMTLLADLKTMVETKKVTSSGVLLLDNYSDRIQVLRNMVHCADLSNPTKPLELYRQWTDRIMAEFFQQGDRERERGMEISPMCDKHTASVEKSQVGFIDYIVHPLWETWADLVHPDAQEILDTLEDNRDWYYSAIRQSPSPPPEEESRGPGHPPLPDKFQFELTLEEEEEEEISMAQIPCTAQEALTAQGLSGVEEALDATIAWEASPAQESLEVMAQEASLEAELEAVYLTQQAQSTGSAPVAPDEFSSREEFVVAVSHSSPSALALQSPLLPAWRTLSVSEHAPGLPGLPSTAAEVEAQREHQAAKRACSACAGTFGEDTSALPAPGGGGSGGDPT
Sequence of PDE4D2 (Q08499 303-809): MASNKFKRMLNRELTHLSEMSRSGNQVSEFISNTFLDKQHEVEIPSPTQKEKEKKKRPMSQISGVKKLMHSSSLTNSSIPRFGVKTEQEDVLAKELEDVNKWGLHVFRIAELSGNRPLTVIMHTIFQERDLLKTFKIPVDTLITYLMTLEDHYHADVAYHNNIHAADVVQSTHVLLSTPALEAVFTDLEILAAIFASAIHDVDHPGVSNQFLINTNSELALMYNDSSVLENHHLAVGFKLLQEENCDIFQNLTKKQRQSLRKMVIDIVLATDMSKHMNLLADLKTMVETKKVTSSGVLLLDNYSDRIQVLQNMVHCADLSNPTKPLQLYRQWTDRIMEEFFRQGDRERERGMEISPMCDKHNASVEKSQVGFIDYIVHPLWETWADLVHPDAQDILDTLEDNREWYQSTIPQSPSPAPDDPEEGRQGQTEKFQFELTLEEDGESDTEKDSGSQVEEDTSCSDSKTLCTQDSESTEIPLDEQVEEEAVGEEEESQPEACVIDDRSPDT

CCOc1nc([C@@H](CS(C)(=O)=O)n2c(=O)[nH]c3cc(-c4ccc(C)cc4C)ccc32)ccc1OC [Ex. 162, (S)-5-(2,4-dimethylphenyl)-1-(1-(6-ethoxy-5-methoxypyridin-2-yl)-2-(methylsulfonyl)ethyl)-1H-benzo[d]imidazol-2(3H)-one]
+: PDE4 B1 inhibitory effect at 20 nM (PDE4B1) | PDE4 A1 inhibitory effect at 20 nM (PDE4A1A) | PDE4 D2 inhibitory effect at 20 nM (PDE4D2)

CCOc1nc([C@@H](CS(C)(=O)=O)n2c(=O)n(C)c3cc(-c4ccc(C)cc4C)ccc32)ccc1OC [Ex. 163, (S)-5-(2,4-dimethylphenyl)-1-(1-(6-ethoxy-5-methoxypyridin-2-yl)-2-(methylsulfonyl)ethyl)-3-methyl-1H-benzo[d]imidazol-2(3H)-one]
+: PDE4 B1 inhibitory effect at 20 nM (PDE4B1) | PDE4 A1 inhibitory effect at 20 nM (PDE4A1A) | PDE4 D2 inhibitory effect at 20 nM (PDE4D2)

CCOc1nc([C@@H](CS(C)(=O)=O)n2c(=O)[nH]c3cc(-c4cc(C)ccc4C)ccc32)ccc1OC [Ex. 164, (S)-5-(2,5-dimethylphenyl)-1-(1-(6-ethoxy-5-methoxypyridin-2-yl)-2-(methylsulfonyl)ethyl)-1H-benzo[d]imidazol-2(3H)-one]
+: PDE4 B1 inhibitory effect at 20 nM (PDE4B1) | PDE4 A1 inhibitory effect at 20 nM (PDE4A1A) | PDE4 D2 inhibitory effect at 20 nM (PDE4D2)

CCOc1nc([C@@H](CS(C)(=O)=O)n2c(=O)n(C)c3cc(-c4cc(C)ccc4C)ccc32)ccc1OC [Ex. 165, (S)-5-(2,5-dimethylphenyl)-1-(1-(6-ethoxy-5-methoxypyridin-2-yl)-2-(methylsulfonyl)ethyl)-3-methyl-1H-benzo[d]imidazol-2(3H)-one]
+: PDE4 B1 inhibitory effect at 20 nM (PDE4B1) | PDE4 A1 inhibitory effect at 20 nM (PDE4A1A) | PDE4 D2 inhibitory effect at 20 nM (PDE4D2)

CCOc1nc([C@@H](CS(C)(=O)=O)n2c(=O)[nH]c3cc(-c4cccc(C)c4C)ccc32)ccc1OC [Ex. 166, (S)-5-(2,3-dimethylphenyl)-1-(1-(6-ethoxy-5-methoxypyridin-2-yl)-2-(methylsulfonyl)ethyl)-1H-benzo[d]imidazol-2(3H)-one]
+: PDE4 B1 inhibitory effect at 20 nM (PDE4B1) | PDE4 A1 inhibitory effect at 20 nM (PDE4A1A) | PDE4 D2 inhibitory effect at 20 nM (PDE4D2)

CCOc1nc([C@@H](CS(C)(=O)=O)n2c(=O)n(C)c3cc(-c4cccc(C)c4C)ccc32)ccc1OC [Ex. 167, (S)-5-(2,3-dimethylphenyl)-1-(1-(6-ethoxy-5-methoxypyridin-2-yl)-2-(methylsulfonyl)ethyl)-3-methyl-1H-benzo[d]imidazol-2(3H)-one]
+: PDE4 B1 inhibitory effect at 20 nM (PDE4B1) | PDE4 A1 inhibitory effect at 20 nM (PDE4A1A) | PDE4 D2 inhibitory effect at 20 nM (PDE4D2)

CCOc1nc([C@@H](CS(C)(=O)=O)n2c(=O)[nH]c3cc(-c4c(C)cccc4C)ccc32)ccc1OC [Ex. 168, (S)-5-(2,6-dimethylphenyl)-1-(1-(6-ethoxy-5-methoxypyridin-2-yl)-2-(methylsulfonyl)ethyl)-1H-benzo[d]imidazol-2(3H)-one]
+: PDE4 B1 inhibitory effect at 20 nM (PDE4B1) | PDE4 A1 inhibitory effect at 20 nM (PDE4A1A) | PDE4 D2 inhibitory effect at 20 nM (PDE4D2)

CCOc1nc([C@@H](CS(C)(=O)=O)n2c(=O)[nH]c3cc(-c4ccc(F)cc4C)ccc32)ccc1OC [Ex. 169, (S)-5-(4-fluoro-2-methylphenyl)-1-(1-(6-ethoxy-5-methoxypyridin-2-yl)-2-(methylsulfonyl)ethyl)-1H-benzo[d]imidazol-2(3H)-one]
+: PDE4 B1 inhibitory effect at 20 nM (PDE4B1) | PDE4 A1 inhibitory effect at 20 nM (PDE4A1A) | PDE4 D2 inhibitory effect at 20 nM (PDE4D2)

CCOc1nc([C@@H](CS(C)(=O)=O)n2c(=O)n(C)c3cc(-c4ccc(F)cc4C)ccc32)ccc1OC [Ex. 170, (S)-5-(4-fluoro-2-methylphenyl)-1-(1-(6-ethoxy-5-methoxypyridin-2-yl)-2-(methylsulfonyl)ethyl)-3-methyl-1H-benzo[d]imidazol-2(3H)-one]
+: PDE4 B1 inhibitory effect at 20 nM (PDE4B1) | PDE4 A1 inhibitory effect at 20 nM (PDE4A1A) | PDE4 D2 inhibitory effect at 20 nM (PDE4D2)

CCOc1nc([C@@H](CS(C)(=O)=O)n2c(=O)n(C)c3cc(-c4cc(F)ccc4C)ccc32)ccc1OC [Ex. 172, (S)-5-(5-fluoro-2-methylphenyl)-1-(1-(6-ethoxy-5-methoxypyridin-2-yl)-2-(methylsulfonyl)ethyl)-3-methyl-1H-benzo[d]imidazol-2(3H)-one]
+: PDE4 B1 inhibitory effect at 20 nM (PDE4B1) | PDE4 A1 inhibitory effect at 20 nM (PDE4A1A) | PDE4 D2 inhibitory effect at 20 nM (PDE4D2)

CCOc1nc([C@@H](CS(C)(=O)=O)n2c(=O)[nH]c3cc(-c4cccc(F)c4C)ccc32)ccc1OC [Ex. 173, (S)-5-(3-fluoro-2-methylphenyl)-1-(1-(6-ethoxy-5-methoxypyridin-2-yl)-2-(methylsulfonyl)ethyl)-1H-benzo[d]imidazol-2(3H)-one]
+: PDE4 B1 inhibitory effect at 20 nM (PDE4B1) | PDE4 A1 inhibitory effect at 20 nM (PDE4A1A) | PDE4 D2 inhibitory effect at 20 nM (PDE4D2)

CCOc1nc([C@@H](CS(C)(=O)=O)n2c(=O)n(C)c3cc(-c4cccc(F)c4C)ccc32)ccc1OC [Ex. 174, (S)-5-(3-fluoro-2-methylphenyl)-1-(1-(6-ethoxy-5-methoxypyridin-2-yl)-2-(methylsulfonyl)ethyl)-3-methyl-1H-benzo[d]imidazol-2(3H)-one]
+: PDE4 B1 inhibitory effect at 20 nM (PDE4B1) | PDE4 A1 inhibitory effect at 20 nM (PDE4A1A) | PDE4 D2 inhibitory effect at 20 nM (PDE4D2)

CCOc1nc([C@@H](CS(C)(=O)=O)n2c(=O)[nH]c3cc(-c4cc(C)ccc4F)ccc32)ccc1OC [Ex. 175, (S)-5-(2-fluoro-5-methylphenyl)-1-(1-(6-ethoxy-5-methoxypyridin-2-yl)-2-(methylsulfonyl)ethyl)-1H-benzo[d]imidazol-2(3H)-one]
+: PDE4 B1 inhibitory effect at 20 nM (PDE4B1) | PDE4 A1 inhibitory effect at 20 nM (PDE4A1A) | PDE4 D2 inhibitory effect at 20 nM (PDE4D2)

CCOc1nc([C@@H](CS(C)(=O)=O)n2c(=O)n(C)c3cc(-c4cc(C)ccc4F)ccc32)ccc1OC [Ex. 176, (S)-5-(2-fluoro-5-methylphenyl)-1-(1-(6-ethoxy-5-methoxypyridin-2-yl)-2-(methylsulfonyl)ethyl)-3-methyl-1H-benzo[d]imidazol-2(3H)-one]
+: PDE4 B1 inhibitory effect at 20 nM (PDE4B1) | PDE4 A1 inhibitory effect at 20 nM (PDE4A1A) | PDE4 D2 inhibitory effect at 20 nM (PDE4D2)

CCOc1nc([C@@H](CS(C)(=O)=O)n2c(=O)[nH]c3cc(-c4cccc(C)c4F)ccc32)ccc1OC [Ex. 177, (S)-5-(2-fluoro-3-methylphenyl)-1-(1-(6-ethoxy-5-methoxypyridin-2-yl)-2-(methylsulfonyl)ethyl)-1H-benzo[d]imidazol-2(3H)-one]
+: PDE4 B1 inhibitory effect at 20 nM (PDE4B1) | PDE4 A1 inhibitory effect at 20 nM (PDE4A1A) | PDE4 D2 inhibitory effect at 20 nM (PDE4D2)

CCOc1nc([C@@H](CS(C)(=O)=O)n2c(=O)n(C)c3cc(-c4cccc(C)c4F)ccc32)ccc1OC [Ex. 178, (S)-5-(2-fluoro-3-methylphenyl)-1-(1-(6-ethoxy-5-methoxypyridin-2-yl)-2-(methylsulfonyl)ethyl)-3-methyl-1H-benzo[d]imidazol-2(3H)-one]
+: PDE4 B1 inhibitory effect at 20 nM (PDE4B1) | PDE4 A1 inhibitory effect at 20 nM (PDE4A1A) | PDE4 D2 inhibitory effect at 20 nM (PDE4D2)

CCOc1nc([C@@H](CS(C)(=O)=O)n2c(=O)[nH]c3cc(-c4ccc(C)cc4F)ccc32)ccc1OC [Ex. 179, (S)-5-(2-fluoro-4-methylphenyl)-1-(1-(6-ethoxy-5-methoxypyridin-2-yl)-2-(methylsulfonyl)ethyl)-1H-benzo[d]imidazol-2(3H)-one]
+: PDE4 B1 inhibitory effect at 20 nM (PDE4B1) | PDE4 A1 inhibitory effect at 20 nM (PDE4A1A) | PDE4 D2 inhibitory effect at 20 nM (PDE4D2)
